# Assay results published in patent publication US20250368638A1, “BICYCLIC INHIBITORS OF NICOTINAMIDE […], COMPOSITIONS AND USES THEREOF” (President and Fellows of Harvard College, priority 2021, published 2025).
# Test system: Salmonella typhimurium (TA98, TA1535, TA1537) and Escherichia coli WP2uvrA (pKM101)
# Experiment: Mini-Ames test
# Type: cell-based
# Protocol: 1. The study evaluated the mutagenic potential of the test article, (or its metabolites) by measuring its ability to induce reverse mutations at selected loci of bacteria Salmonella typhimurium (TA98, TA1535, TA1537) and Escherichia coli WP2uvrA (pKM101) in both the presence and absence of microsomal enzymes.
# 2. […] Top agar containing 0.6% (w/v) agar and 0.5% (w/v) sodium chloride were supplemented with 0.5 mM D-biotin and 0.5 mM L-histidine for Salmonella typhimurium strains used or 0.5 mM D-biotin and 0.5 mM L-tryptophan for Escherichia coli WP2uvrA (pKM101) used.
# 3. In the Mini-Ames test, 4 strains were selected for testing: Salmonella typhimurium (TA98, TA1535.TA1537) and Escherichia coli WP2uvrA (pKM101). The test strains were prepared from frozen working stocks. 10 μL frozen working stock adding in 5 mL nutrient broth were incubated with 220 rpm shaking at 37±2° C. for 10 hours until an optical density (at 650 nm) of 0.6-0.8 were reached. The overnight culture were used for the mutagenicity test.
# 4. The test article was supplied as the powder and maintained at −20° C. until use. Stock solutions were prepared at 50 mg/mL in DMSO (Table 11A). […]
# 7. […] If the precipitation dose interfere with the scoring (count the number of the revertants), the lowest precipitating dose should be used as the top dose scored. […]
# Background lawns are measured microscopically using a stereoscope. […]
smiles,measurement,setting,value
"C[C@@H]1Cc2cc(C(N)=O)cnc2N1 [Compound 11, (2R)-2-methyl-2,3-dihydro-1H-pyrrolo[2,3-b]pyridine-5-carboxamide]",F value (Mini Ames),"all tested concentrations, every strain, with and without an S9 Fraction",less than 2
same,Mutagenicity (Mini-Ames),"various bacteria strains, with and without S9",not mutagenic
